The record followed here is PubChem BioAssay (NCI).

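Five compound concentrations were applied to cells in 96-well plates for 48 hours; endpoints were derived by simple linear interpolation of the resulting dose-response curve. At the GI50, growth is halved. At the TGI there is no net growth.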

Common to all, as to experiment: growth of human tumour cells (NCI), 48 h
For assay [1], the system named is HOP-92 NSCLC.
The test system of assay [2] is UO-31 renal.
Assay [3] relates to HCC-2998 colon.
In assay [4] the test system is SNB-19 CNS.
The test system of assay [5] is CCRF-CEM leukemia.
Assay [6] deals with NCI-H226 lung.
Assay [7] relates to T-47D breast.

As for `CC(C)(C)OC(=O)NC(CCC(=O)OCc1ccccc1)C(=O)NCCCO` (configuration not stated), the TGI in assay [1], in assay [2], in assay [3], in assay [4], in assay [5] and in assay [6] was > 100 µM each time. For the same compound, in assay [7], the TGI is > 100 µM.
Regarding `Cc1ccc(C2=C(C#N)C(=O)N3CCN=C3S2)cc1`, the TGI in assay [1], in assay [2], in assay [3], in assay [4], in assay [5] and in assay [6] was > 100 µM each time. In addition, the TGI in assay [7] is > 100 µM.
Regarding `O=C(Nc1ccccc1)n1[nH]c(=O)n(-c2ccccc2)c1=O`, the TGI in assay [1], in assay [2], in assay [3], in assay [4], in assay [5] and in assay [6] was > 100 µM each time. The TGI in assay [7] was > 100 µM.
For `CC1=C(C)C1[N+](=O)[O-]`, the TGI in assay [1], in assay [2], in assay [3], in assay [4], in assay [5] and in assay [6] was > 100 µM in each case. For the same compound, the TGI in assay [7] is > 100 µM.
Take `COC(=O)[C@@H](NC(=O)N(CCC#N)CCCN(C(=O)N[C@H](Cc1ccccc1)C(=O)OC)c1ccccc1)C(C)C`: the TGI in assay [1] is 80 µM; in assay [2], > 100 µM; in assay [3] it was > 100 µM; in assay [4] it was > 100 µM; in assay [5], > 100 µM; in assay [6], > 100 µM. The TGI in assay [7] is > 100 µM.
With `O=C1CCCC1C(O)(C(F)(F)F)C(F)(F)F` (configuration not stated), the TGI in assay [1], in assay [2], in assay [3], in assay [4], in assay [5] and in assay [6] was > 100 µM throughout. Besides, the TGI in assay [7] is > 100 µM.
For `CC(C)(C)c1ccc(-n2c3nc(=O)n(-c4ccccc4CO)c(=O)c-3cc3ccccc32)cc1`, the TGI in assay [1] was 97.7 µM; in assay [2], > 100 µM; in assay [3], > 100 µM; in assay [4] it was > 100 µM; in assay [5], 66.3 µM; in assay [6], > 100 µM. Besides, in assay [7], the TGI is > 100 µM.
In the case of `Cc1ccc2c(c1)CC1(Cc3c(C)cccc3C1=O)C2=O` (configuration not stated), the TGI in assay [1], in assay [2], in assay [3], in assay [4], in assay [5] and in assay [6] was > 100 µM in each case. Also, the TGI in assay [7] is > 100 µM.
For the compound `COc1cc(/C=C2\C(=O)N(c3ccccc3Cl)C(c3ccccc3)S2(=O)=O)cc(OC)c1OC` (configuration not stated), the TGI in assay [1] is > 100 µM; in assay [2] it was > 100 µM; in assay [3], > 100 µM; in assay [4], > 100 µM; in assay [5], 48.9 µM; in assay [6] it was > 100 µM. Moreover, in assay [7], the TGI was > 100 µM.
As for `CN1CCCOC(c2ccc([N+](=O)[O-])cc2)O1` (configuration not stated), the TGI in assay [1], in assay [2], in assay [3], in assay [4], in assay [5] and in assay [6] was > 100 µM each time. Moreover, the TGI in assay [7] was > 100 µM.
On to `CC(=O)c1cccc(Nc2nc3ccc(Cl)cc3c3[nH]c4ccccc4c23)c1`, for which the TGI in assay [1] is 13.4 µM; in assay [2] it was 41.9 µM; in assay [3], > 100 µM; in assay [4] it was 48.6 µM; in assay [5] it was > 100 µM; in assay [6], 67.1 µM. The compound also displayed a TGI in assay [7] of 50.6 µM. Also, the GI50 is 14.2 µM in assay [3] and 10.4 µM in assay [6].
For the compound `Cc1ccc(/C=C2\CN(C)CC3C2=NN(c2ccccc2)C3c2ccc(C)cc2)cc1` (configuration not stated), the TGI was > 100 µM in assay [1]; > 100 µM in assay [2]; > 100 µM in assay [3]; > 100 µM in assay [4]; 95.7 µM in assay [5]; > 100 µM in assay [6]. The TGI in assay [7] is > 100 µM.
In the case of `COc1ccc(N2C(=O)C(C)SC2c2cc3cc(Br)ccc3nc2Cl)cc1` (configuration not stated), the TGI in assay [1] was 82.9 µM; in assay [2], > 100 µM; in assay [3], > 100 µM; in assay [4] it was > 100 µM; in assay [5], > 100 µM; in assay [6], > 100 µM. In assay [7], the TGI is > 100 µM.
On to `C=CC[C@@]1([C@H](C=C)COCc2ccc(OC)cc2)CC[C@]2(C)OC(C)(C)[C@@H](c3ccccc3)N2C1=S`, for which the TGI in assay [1], in assay [2], in assay [3], in assay [4], in assay [5] and in assay [6] was > 100 µM each time. In addition, in assay [7], the TGI was > 100 µM.
Consider `O=P1(c2ccccc2)C(c2ccccc2)=CC=C1c1ccccc1`, for which the TGI was 51.1 µM in assay [1]; > 100 µM in assay [2]; 64.8 µM in assay [3]; > 100 µM in assay [4]; 62.7 µM in assay [5]; > 100 µM in assay [6]. For the same compound, in assay [7], the TGI was > 100 µM.
Take `OC1[C@H](O)CN(OCc2ccccc2)C[C@@H]1O` (some centres not stated): the TGI in assay [1], in assay [2], in assay [3], in assay [4], in assay [5] and in assay [6] was > 100 µM each time. In addition, the TGI in assay [7] was > 100 µM.
`Cc1c(F)c(N)c2c(=O)cc(-c3ccc(N)c(F)c3)oc2c1F`: the TGI is 63.8 µM in assay [1]; 60.1 µM in assay [2]; > 100 µM in assay [3]; 46.4 µM in assay [4]; > 100 µM in assay [5]; 36 µM in assay [6]. Also, in assay [7], the TGI worked out at 16 µM.
As for `COc1cccc(N2C(=O)/C(=C\c3ccccc3)SC2c2cc(OC)c(OC)c(OC)c2)c1` (configuration not stated), the TGI in assay [1], in assay [2], in assay [3], in assay [4], in assay [5] and in assay [6] was > 100 µM throughout. The same compound registered a TGI in assay [7] of 94.3 µM.
Consider `Cc1c(Cl)c(S(N)(=O)=O)cc2c1NC=NS2(=O)=O`, for which the TGI in assay [1], in assay [2], in assay [3], in assay [4], in assay [5] and in assay [6] was > 100 µM throughout. In addition, in assay [7], the TGI was > 100 µM.
Consider `COc1ccc(C2=NN(C(N)=S)C(c3ccccc3)C2)cc1` (configuration not stated), for which the TGI in assay [1], in assay [2], in assay [3], in assay [4], in assay [5] and in assay [6] was > 100 µM throughout. Also, the TGI in assay [7] was > 100 µM.
For `O=C(NNCc1ccco1)c1cc2ccccc2[nH]1`, the TGI in assay [1] is > 96.4 µM; in assay [2], > 100 µM; in assay [3], > 90.1 µM; in assay [4], > 100 µM; in assay [5] it was > 100 µM; in assay [6], > 100 µM. The TGI in assay [7] is > 100 µM.
For `CCOc1cc2c(cc1O)CC[C@@H]1[C@@H]2CC[C@]2(C)C(N)CC[C@@H]12` (some centres not stated), the TGI was determined as 27 µM in assay [1]; 16.2 µM in assay [2]; 5.44 µM in assay [3]; 28.2 µM in assay [4]; 18.2 µM in assay [5]; 10.4 µM in assay [6]. In assay [7], the TGI was 25.3 µM.
As for `Cc1ccc(N2CCC3(CC2)OCCO3)cc1`, the TGI in assay [1], in assay [2], in assay [3], in assay [4], in assay [5] and in assay [6] was > 100 µM in each case. In addition, the TGI in assay [7] is > 100 µM.
On to `COC(=O)CN1SC2(SC13C(C)(C)C(=O)C3(C)C)C(C)(C)C(=O)C2(C)C`, for which the TGI was 21.3 µM in assay [1]; > 100 µM in assay [2]; > 100 µM in assay [3]; > 100 µM in assay [4]; 32.8 µM in assay [5]; 93.8 µM in assay [6]. Further, in assay [7], the TGI was > 100 µM.
With `CC1=NN(C(=O)CC(=O)Nc2ccc(C)cc2)C(=O)C1N=Nc1ccc(S(=O)(=O)c2ccc(N=NC3C(=O)N(C(=O)CC(=O)Nc4ccc(C)cc4)N=C3C)cc2)cc1` (configuration not stated), the TGI in assay [1], in assay [2], in assay [3], in assay [4], in assay [5] and in assay [6] was > 100 µM in each case. The TGI in assay [7] was > 100 µM.
